Experimental data published in patent publication US9730874B2, “Nitrone compounds and their use in personal care” (Dow Global Technologies LLC, priority 2014, dated 2017).

Test: Oxygen Radical Absorbance Capacity (ORAC) antioxidant potential
Type: biochemical
Conditions: calculated from ORAC values (AUC minus blank) vs Trolox; test concentration 100 micromolar
Experimental: Antioxidant potential is evaluated using the Oxygen Radical Absorbance Capacity (ORAC) protocol. ORAC is a chemical in-vitro method based on the hydrogen atom transfer (HAT) mechanism (see N. Re et al., Free Radical Biology & Medicine, 26 (9/10), 1231 (1997)). ORAC measures antioxidant inhibition of peroxyl radical induced oxidations and thus reflects classical radical chain breaking antioxidant activity by H atom transfer. In this assay, the peroxyl radical reacts with a fluorescent probe to form a non-fluorescent product. This is quantitated using a fluorescence measurement. Antioxidant capacity is determined by decreased rate and amount of product formed over time. This assay depends upon the free radical damage to the fluorescent probe resulting in the change in its fluorescence intensity. The change of fluorescence intensity is an indicator of the degree of free radical damage. In the presence of an antioxidant, the inhibition of free radical damage is reflected in higher fluorescence intensity and can be measured as antioxidant capacity against the free radicals. The uniqueness of ORAC assay is that the reaction is driven to completion. This allows calculation of the area under the curve (AUC) and gives an absolute quantitation of antioxidancy as opposed to relative measurements in many other assays.
As noted, the longer it takes to observe a decrease in fluorescence, the higher the antioxidant (AO) potential. From the AUC for a given antioxidant, the AUC for blank is subtracted to give its ORAC value. The concentration of AO needed to give the same AUC values as Trolox is calculated and used to represent the Trolox equivalent AO Capacity (TEAC). Trolox is ((±)-6-Hydroxy-2,5,7,8-tetramethylchromane-2-carboxylic acid, CAS #53188-07-1), and is used as an internal control.
The ORAC test is conducted in the stilbene-pendant nitrone compounds of Table 1 above (inventive compounds) as well as to Vitamin C, Vitamin E, and the following comparative compounds:
The inventive stilbene-pendant nitrones in the ORAC test solutions were at a concentration of 100 micromolar, while the concentrations of Trolox, Vitamin C, Vitamin E, BHT, PBN+BHT, and VAL-IPHA were at 100 micromolar. The TEAC values calculated from the ORAC values are listed the Table 3.

Molecule	TEAC (Trolox equivalent AO Capacity)
O=C1O[C@H]([C@@H](O)CO)C(O)=C1O [Vitamin C, reference compound]	0.76
COc1cc(/C=C/c2ccc(O)c(/C=[N+](/[O-])Cc3ccc(O)c(O)c3)c2)ccc1O [Sald-34-DHBzHA, N-(2-Hydroxy-5-(4-hydroxy-3-methoxystyryl)benzylidene)-1-(3,4-dihydroxyphenyl)methanamine oxide]	7.16
COc1cc(/C=C/c2ccc(O)c(/C=[N+](/[O-])Cc3ccccc3)c2)ccc1O [Sald-BzHA, N-(2-Hydroxy-5-(4-hydroxy-3-methoxystyryl)benzylidene)-1-phenylmethanamine oxide]	8.33
CC(C)(C)/[N+]([O-])=C/c1ccccc1 [PBN, 2-Phenyl-N-tert-butylnitrone, reference compound]	not very high
COc1cc(/C=C/c2ccc(O)c(/C=[N+](/[O-])Cc3ccc(O)cc3)c2)ccc1O [Sald-pHBzHA, N-(2-Hydroxy-5-(4-hydroxy-3-methoxystyryl)benzylidene)-1-hydroxyphenylmethanamine oxide]	9.02
COc1cc(/C=C/c2ccc(O)c(/C=[N+](/[O-])Cc3ccc(O)cc3O)c2)ccc1O [Sald-24DHBzHA, N-(2-Hydroxy-5-(4-hydroxy-3-methoxystyryl)benzylidene)-1-(2,4-dihydroxyphenyl)methanamine oxide]	7.31
Vitamin E [reference compound]	0.13
